Results reported in ChEMBL document CHEMBL1130849, “Novel 1,3-disubstituted-5,10-dihydro-5,10-dioxo-1H-benzo[g] isochromene-3 carboxamides as potent antitumor agents” (Bioorg Med Chem Lett, 1998).
pIC50: −log10 of the molar value.

Tests used:
[1] = Selectivity ratio was determined for P-170 glycoprotein mediated multidrug resistant variant SKVLB to the ovarian cancer cell line SK-OV3.; format: functional, Cancer cell lines
SK-OV-3 = assay: Compound was tested for its antitumor activity against SKOV3 human ovarian cancer cell line; format: functional, cell-based
HT-29 [2] = assay: Compound was tested for its antitumor activity against HT-29 colon carcinoma cell line; format: functional, cell-based; details: Homo sapiens
HT-29 [3] = assay: Compound was tested for its antitumor activity against HT-29 colon carcinoma cell line; No activity.; format: functional, cell-based, Homo sapiens

| Structure (SMILES) | pIC50 (SK-OV-3) | pIC50 (HT-29 [2]) | IC50 (HT-29 [3]) | Ratio [1] |
| --- | --- | --- | --- | --- |
| COC1OC(C(=O)NCCN2CCCC2)=CC2=C1C(=O)c1ccccc1C2=O (centres undefined) | 7.30 | 6.77 |  | 10 |
| COC1OC(C(=O)NCCCCN(C)C)=CC2=C1C(=O)c1ccccc1C2=O (centres undefined) | 6.85 |  | Not Active | 4.1 |
| COC1OC(C(=O)NCCCNC(=O)C2=CC3=C(C(=O)c4ccccc4C3=O)C(OC)O2)=CC2=C1C(=O)c1ccccc1C2=O (centres undefined) | 7.85 | 6.82 |  | 111 |
| COC1OC(C(=O)NCCCN(C)C)=CC2=C1C(=O)c1ccccc1C2=O (centres undefined) | 8.15 | 7.15 |  | 9.3 |
| COC1OC(C(=O)NCC[N+](C)(C)C)=CC2=C1C(=O)c1ccccc1C2=O (centres undefined) | 4.71 | 4.49 |  | 1.5 |
| CCCC1OC(C(=O)NCCCN(C)C)=CC2=C1C(=O)c1ccccc1C2=O (centres undefined) | 6.55 | 6.41 |  | 2 |
| COC1OC(C(=O)N(C)CCN(C)C)=CC2=C1C(=O)c1ccccc1C2=O (centres undefined) | 6.96 | 5.93 |  | 5.4 |
| COC1OC(C(=O)NCCC[S+](C)C)=CC2=C1C(=O)c1ccccc1C2=O.[Cl-] (centres undefined) | 5.89 |  | Not Active | 13 |

Further compounds by rising pIC50 (SK-OV-3), results first:

| pIC50 (SK-OV-3) | pIC50 (HT-29 [2]) | IC50 (HT-29 [3]) | Structure (SMILES) | Ratio [1] |
| --- | --- | --- | --- | --- |
| 5.43 | 5.20 |  | CN(C)CCCNC(=O)C1=CC2=C(C(=O)c3ccccc3C2=O)C(O)O1 (centres undefined) | 6.3 |
| 5.97 | 5.56 |  | O=C(NCCCBr)C1=CC2=C(CO1)C(=O)c1ccccc1C2=O | 2.6 |
| 6.66 |  | Not Active | CN(C)CCCNC(=O)C1=CC2=C(CO1)C(=O)c1ccccc1C2=O | 5.4 |
| 7.22 | 5.81 |  | COC1OC(C(=O)NCCCO)=CC2=C1C(=O)c1ccccc1C2=O (centres undefined) | 6 |
| 7.70 | 6.47 |  | COc1cccc2c1C(=O)c1c(O)c3c(c(O)c1C2=O)C[C@@](O)(C(=O)CO)C[C@@H]3O[C@H]1C[C@H](N)[C@H](O)[C@H](C)O1 [DOXORUBICIN] | 300 |
